Experimental findings from PubChem BioAssay (NCI) are described below.

Some test systems named below: MDA-MB-435; MCF7 breast; A498 renal; IGROV1 ovarian; SF-539 CNS; SNB-19 CNS; SW-620 colon; HCT-15 colon; UACC-257 melanoma; NCI-H522 lung.
Test in all cases: NCI anticancer screen, dose series, 48 h

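How tested: cells in 96-well plates exposed to compound for 48 hours at five concentrations. At the GI50, growth is halved. TGI is the concentration that stops growth completely.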

Take `NC(=O)CC1OC(=O)Cc2cc3c(c(O)c21)C(=O)c1c(O)cccc1C3=O` (stereo not given): the TGI with MDA-MB-435, in the test with MCF7 breast, in the test with A498 renal, with IGROV1 ovarian, in the test with SF-539 CNS and in the test on SNB-19 CNS was over 100 µM each time. In addition, the TGI in the test on SW-620 colon, in the test with HCT-15 colon, with UACC-257 melanoma and in the test with NCI-H522 lung was over 100 µM throughout.
Regarding `COc1cc(CCC[P+](c2ccccc2)(c2ccccc2)c2ccccc2)c(OC)c2c1OCO2`, the GI50 in the test with MDA-MB-435 is 0.494 µM; in the test with MCF7 breast it was 1.82 µM; in the test on A498 renal, 1.41 µM; with IGROV1 ovarian it was 1 µM; in the test with SF-539 CNS, 2.31 µM; in the test with SNB-19 CNS, 1.17 µM. Moreover, the GI50 in the test on SW-620 colon was 1.83 µM; in the test with HCT-15 colon it was 13.4 µM; in the test on UACC-257 melanoma, 0.378 µM; in the test with NCI-H522 lung it was 1.43 µM. In addition, the TGI with MDA-MB-435 stood at 5.91 µM; in the test with MCF7 breast it was 12.9 µM; in the test on A498 renal, 4.28 µM; with IGROV1 ovarian, 11.7 µM; with SF-539 CNS it was 12.6 µM; in the test with SNB-19 CNS, 10.9 µM. Further, the TGI in the test with SW-620 colon is 11.4 µM; in the test on HCT-15 colon it was over 100 µM; with UACC-257 melanoma, 6.44 µM; with NCI-H522 lung, 12.1 µM.
Consider `O=S(=O)(N=C1C(Cl)=C(Cl)C(=NS(=O)(=O)c2ccccc2)C(Cl)=C1Cl)c1ccccc1`, for which the GI50 in the test on MDA-MB-435 was 20.1 µM; in the test with MCF7 breast, 18 µM; with A498 renal, 15.9 µM; in the test on IGROV1 ovarian, 18.7 µM; with SF-539 CNS, 45.6 µM; in the test with SNB-19 CNS, 38.2 µM. The GI50 in the test on SW-620 colon was 13.4 µM; in the test on HCT-15 colon it was 24.5 µM; in the test with UACC-257 melanoma, 24 µM; in the test on NCI-H522 lung it was 11.1 µM. Moreover, the TGI was 68.3 µM in the test on MDA-MB-435; over 100 µM in the test on MCF7 breast; 50.9 µM with A498 renal; 40.7 µM with IGROV1 ovarian; over 100 µM in the test on SF-539 CNS; over 100 µM with SNB-19 CNS. Besides, the TGI in the test on SW-620 colon was 28 µM; in the test with HCT-15 colon, over 100 µM; with UACC-257 melanoma, 86.3 µM; with NCI-H522 lung it was 29.7 µM.
On to `COC[C@H](NC(=O)c1cnc(C)s1)C(=O)N[C@@H](COC)C(=O)N[C@@H](Cc1ccccc1)C(=O)[C@@]1(C)CO1`, for which the GI50 is 12.9 µM with MDA-MB-435; 11.1 µM in the test on MCF7 breast; 45.3 µM in the test with A498 renal; 38.8 µM in the test on IGROV1 ovarian; 27.7 µM with SF-539 CNS; over 65.3 µM in the test on SNB-19 CNS. For the same compound, the GI50 is 21.2 µM in the test on SW-620 colon, 31.2 µM in the test on HCT-15 colon, 21.1 µM with UACC-257 melanoma and 12.8 µM in the test with NCI-H522 lung. Moreover, the TGI is 40 µM in the test with MDA-MB-435; over 100 µM in the test on MCF7 breast; over 100 µM in the test with A498 renal; over 100 µM with IGROV1 ovarian; over 74.1 µM with SF-539 CNS; over 100 µM in the test with SNB-19 CNS. Also, the TGI in the test on SW-620 colon is over 100 µM; in the test with HCT-15 colon, over 100 µM; in the test on UACC-257 melanoma, over 70.8 µM; in the test with NCI-H522 lung, 63 µM.
As to `CCC(CC)n1cnc2c(-c3cnc(N)cn3)nc(N3CC4CCC(C3)O4)nc21`, the GI50 with MDA-MB-435 was 0.314 µM; with MCF7 breast it was 0.156 µM; with A498 renal, 0.0749 µM; with IGROV1 ovarian it was 0.0929 µM; with SF-539 CNS, 0.51 µM; in the test on SNB-19 CNS, 1.37 µM. Moreover, the GI50 is 0.76 µM in the test with SW-620 colon, 0.432 µM in the test on HCT-15 colon, 0.289 µM with UACC-257 melanoma and 0.209 µM with NCI-H522 lung. Moreover, the TGI in the test with MDA-MB-435 was 4.63 µM; in the test with MCF7 breast, over 100 µM; in the test with A498 renal, 0.466 µM; in the test with IGROV1 ovarian, 1.13 µM; with SF-539 CNS, 4.19 µM; in the test on SNB-19 CNS it was over 100 µM. Moreover, the TGI in the test with SW-620 colon is over 100 µM; in the test with HCT-15 colon, over 100 µM; in the test on UACC-257 melanoma it was 4.07 µM; in the test on NCI-H522 lung it was over 100 µM.
Consider `COc1ccc2cc(-c3cnc4nonc4n3)ccc2c1`, for which the GI50 in the test on MDA-MB-435 is 1 µM; with MCF7 breast, 0.415 µM; in the test on A498 renal it was 1.15 µM; with IGROV1 ovarian, 15.3 µM; in the test on SF-539 CNS, 0.825 µM; in the test with SNB-19 CNS it was 4.37 µM. Besides, the GI50 in the test on SW-620 colon is 1.25 µM; with HCT-15 colon it was 0.684 µM; with UACC-257 melanoma, 7.89 µM; with NCI-H522 lung, 1.29 µM. Further, the TGI is 3.35 µM in the test with MDA-MB-435; over 100 µM in the test with MCF7 breast; 8.79 µM in the test with A498 renal; over 100 µM with IGROV1 ovarian; 4.88 µM in the test on SF-539 CNS; over 100 µM in the test with SNB-19 CNS. In addition, the TGI in the test with SW-620 colon, in the test with HCT-15 colon, in the test on UACC-257 melanoma and in the test with NCI-H522 lung was over 100 µM throughout.
